Data as given in patent US20240092803A1, “BRIDGED COMPOUNDS AS KRAS G12D INHIBITOR AND DEGRADER AND THE USE THEREOF” (BEIGENE SWITZERLAND GMBH, priority 2021, published 2024).

Columns and labels:
[1] = target: KRAS G12D protein level in AsPC-1 cells (Homo sapiens (Human), UniProt P01116, G12D); assay: Western blotting assay in AsPC-1 cells; format: cell-based; details: 3 uM, 48 h compound treatment, Western blot
Method: AsPC-1 cell line was used in this study. Cells were maintained in RPMI-1640 supplemented 10% fetal bovine serum (Thermo Fisher), 50 units/mL penicillin and streptomycin (Thermo Fisher) and kept at 37° C. In a humidified atmosphere of 5% CO2 in air. Cells were reinstated from frozen stocks that were laid down within 30 passages from the original cells purchased. 400000 AsPC-1 cells per well in 1 mL culture medium were seed in the 12-well plate for 4 hours. Cells were treated with an appropriate dilution series of compounds. After 48h compound treatment, medium was aspirated, the cells were washed with PBS, and then 30 μL of 1× protein lysis buffer (Cell Signaling Technology) containing protease inhibitors (Merck) and phosphatase inhibitors (Sigma) was added. The cells were lysed, and after centrifugation, the supernatants were quantified by BCA Protein assay Kit (Thermo Fisher). 4× loading Buffer (Thermo Fisher) was added to equal amounts of total protein from each sample and heated at 95° C. for 5 minutes. […]

[2] = target: KRAS G12D HiBiT in HEK293 KRAS-G12D NanoLuc cell pool (Homo sapiens (Human), UniProt P01116, G12D); assay: KRAS G12D NanoLuc assay; format: cell-based; details: 24 h compound treatment
Method: HEK293 KRAS-G12D NanoLuc cell pool was used in this study. The cells were stable expressing KRAS G12D HiBiT and LgBiT. Cells were maintained in DMEM supplemented with 10% fetal bovine serum (Thermo Fisher), 50 units/mL penicillin and streptomycin (Thermo Fisher) and kept at 37° C. in a humidified atmosphere of 5% CO2 in air. Cells were reinstated from frozen stocks that were laid down within 30 passages from the cell pool was constructed. 20000 cells per well were seeded a 96-well White with Clear Flat bottom plate for 4 h. Cells were treated with a 10-point dilution series. The final compound concentration is from 0 to 10 μM. After 24 h compound treatment, added 20 μL of CellTiter-Fluor reagent (Promega) to plates, shook for 2 min, incubated at least 30 min in 37° C. Added 25 μL of NanoGlo Live cell reagent (Promega) to the same plate. shook by mini-shaker for 5 min. Measure Luminescence and Fluorescence (380-400nmEx/505nmEm) signals immediately using a PHERAstar FSX reader (BMG Labtech). DC50 determination was performed by fitting the curve of percent inhibition versus the log of the inhibitor concentration using Excel and GraphPad Prism 8.

Cc1ncsc1-c1ccc([C@H](C)NC(=O)[C@@H]2C[C@@H](O)CN2C(=O)[C@@H](NC(=O)CCOCCCN2CCC[C@H]2COc2nc3c(c(N4CC5CCC(C4)N5)n2)CCN(c2cccc4cccc(Cl)c24)C3)C(C)(C)C)cc1 [Example 17]
KRAS G12D protein level decrease [1]: 40%
DC50 [2]: 708 nM
Dmax [2]: 80%
